Test results as given in US9988341B2, “Bacterial topoisomerase inhibitors and use thereof” (THE FLORIDA INTERNATIONAL UNIVERSITY BOARD OF TRUSTEES, priority 2016, dated 2018).
In brackets after ≈: the same amount, converted by molar mass.

What was measured:
E. coli topoisomerase I = E. coli topoisomerase I (Escherichia coli, UniProt P06612); assay: Bacterial topoisomerase I relaxation activity inhibition assay (EcTopI); assay type: biochemical
Procedure: The relaxation activity of bacterial topoisomerase I was assayed in a buffer containing 10 mM Tris-HCl, pH 8.0, 50 mM NaCl, 0.1 mg/mL gelatin, and 0.5 mM MgCl2. One microliter of the compounds dissolved in DMF (dimethylformamide) or solvent alone was mixed with 10 μl of the reaction buffer containing 10 ng of enzyme before the addition of 9 μl of reaction buffer containing 160 ng of supercoiled pBAD/Thio plasmid DNA purified by cesium chloride gradient as substrate. Following incubation at 37° C. for 30 min, the reactions were terminated by the addition of 4 μl of 50% glycerol, 50 mM EDTA, and 0.5% (v/v) bromophenol blue, and analyzed by agarose gel electrophoresis. The gels were stained in ethidium bromide and photographed under UV light.

[1] = biological target: M. tuberculosis topoisomerase I (Mycobacterium tuberculosis, UniProt P9WG49); assay: biochemical; conditions: Table 3; read-out: MtbTopI IC50
M. smegmatis mc2 155 = assay: M. smegmatis growth inhibition (MIC); assay type: cell-based; conditions: Mycolicibacterium smegmatis, MC2155
Mtb-lux = assay type: cell-based, M. tuberculosis
[2] = tested on: M. smegmatis mc2 155/pTA-noI; assay: microbe, parasite or virus in culture; assay type: cell-based; conditions: Mycolicibacterium smegmatis, MC2155, read-out: MIC, M. smegmatis mc2 155/pTA-noI
Mtb CDC1551 Mtb::lux = assay: microbe, parasite or virus in culture; assay type: cell-based, M. tuberculosis; conditions: Mycobacterium tuberculosis, 120 h; 50% reduction in luminescence signal compared to controls; 5 days
[3] = Resazurin-based cytotoxicity assay; conditions: mouse, J774 macrophages, 50% loss of viability in J774 macrophage cell line after 24 hr exposure
Procedure: (§1) J774 macrophages were cultured in Dulbeco's minimal essential medium (DMEM) supplemented with 10% heat inactivated fetal bovine serum. One day prior to performing the assay 2.5×10^4 cells were seeded on black 384 well. Compounds and controls (0.4% DMSO and 2% Triton X final concentrations) were added 6 hr after seeding. Survival was determined after 24 hr by resazurin reduction measurement. Addition of 0.02 mg/mL resazurin was followed by 4 hours incubation at 37° C. and subsequent fluorescence reading (530 nm/590 nm) using a Synergy H4 (BioTek) plate reader. Data are presented as a percent viability compared to the vehicle (0.4% DMSO) control with 100% being noncytotoxic.

J774 macrophages = assay: Resazurin-based cytotoxicity assay; conditions: 50% loss of viability in J774 macrophage cell line after 24 hr exposure
Procedure: as §1

MtbTopI = MtbTopI (Mycobacterium tuberculosis, UniProt P9WG49); assay: Anisotropy assay of DNA binding by MtbTopI; conditions: compounds at their IC50 concentrations
Mtb::lux = assay type: cell-based, M. tuberculosis; conditions: at higher concentrations; data not shown
M. smegmatis = M. smegmatis loss of viability (viable colony counts); assay type: cell-based
HEK = HEK toxicity
E. coli DNA gyrase = biological target: T1, E. coli DNA gyrase (Escherichia coli, UniProt P0AES4+P0AES6); assay: DNA gyrase supercoiling inhibition assay; assay type: biochemical
T1 construct: purchased New England BioLabs
Procedure: DNA gyrase (obtained from New England BioLabs) supercoiling assays were carried out by mixing the compounds with 2 U of the enzyme in reaction buffer supplied by the manufacturer, followed by the addition of 300 ng of relaxed covalently closed circular DNA was for a final reaction volume of 20 μL. The samples were incubated at 37° C. for 30 minutes before being terminated by the addition of a buffer containing 5% SDS, 0.25% bromophenol blue, and 25% glycerol. The reactions were then analyzed by agarose gel electrophoresis.

Human topoisomerase I = biological target: T2, Human topoisomerase I (Homo sapiens, UniProt P11387); assay: Human topoisomerase I relaxation inhibition assay; assay type: biochemical
T2 construct: purchased TopoGen
T2 sequence (P11387 1-765): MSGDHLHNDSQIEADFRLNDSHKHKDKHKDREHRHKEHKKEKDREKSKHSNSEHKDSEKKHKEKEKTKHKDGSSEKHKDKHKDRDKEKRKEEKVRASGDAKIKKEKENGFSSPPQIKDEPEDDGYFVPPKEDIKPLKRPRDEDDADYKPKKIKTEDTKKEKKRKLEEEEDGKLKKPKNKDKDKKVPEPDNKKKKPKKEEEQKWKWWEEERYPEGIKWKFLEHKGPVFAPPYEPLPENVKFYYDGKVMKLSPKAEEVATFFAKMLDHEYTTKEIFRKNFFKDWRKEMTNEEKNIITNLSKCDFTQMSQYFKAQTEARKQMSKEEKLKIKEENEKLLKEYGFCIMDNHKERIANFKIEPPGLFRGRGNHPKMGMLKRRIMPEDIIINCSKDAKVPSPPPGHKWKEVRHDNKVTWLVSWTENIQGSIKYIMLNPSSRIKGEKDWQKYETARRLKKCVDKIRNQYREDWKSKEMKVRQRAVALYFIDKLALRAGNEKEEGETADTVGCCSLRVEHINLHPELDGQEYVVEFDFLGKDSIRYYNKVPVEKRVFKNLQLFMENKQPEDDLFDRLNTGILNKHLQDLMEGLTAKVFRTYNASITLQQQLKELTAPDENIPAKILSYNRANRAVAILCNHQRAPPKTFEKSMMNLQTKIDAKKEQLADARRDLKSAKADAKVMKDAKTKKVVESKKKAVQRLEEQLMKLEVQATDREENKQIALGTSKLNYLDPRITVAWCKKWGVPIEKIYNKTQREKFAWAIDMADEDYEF
Procedure: Human topoisomerase I (obtained from TopoGen) relaxation assays were carried out with 0.5 U of enzyme in reaction buffer supplied by the manufacturer. The enzyme was mixed with the indicated concentration of compound dissolved before 160 ng of supercoiled pBAD/Thio plasmid DNA was added in the same buffer, for a final volume of 20 μL. Following incubation at 37° C. for 30 minutes, the reactions were terminated with a buffer containing 5% SDS, 0.25% bromophenol blue, and 25% glycerol, and analyzed by agarose gel electrophoresis.

Human Topoisomerase IIα = biological target: T3, Human Topoisomerase IIα (Homo sapiens, UniProt P11388); assay: Human topoisomerase IIα decatenation inhibition assay; assay type: biochemical
T3 construct: purchased TopoGen
Procedure: Human Topoisomerase IIα (obtained from TopoGen) assays were carried out by adding the compounds to 180 ng of kinetoplast DNA (kDNA) in the buffer supplied by the manufacturer before the addition of 2 U of the enzyme. The samples were incubated for 15 minutes at 37° C. before the addition of 4 μl of stop buffer containing 5% sarkosyl, 0.0025% bromophenol blue, and 25% glycerol. The reactions were then analyzed by electrophoresis in 1% agarose gels containing 0.5 μg ml^−1 ethidium bromide before being photographed under UV light.

E. coli topoisomerase I, sequence (P06612 whole entry): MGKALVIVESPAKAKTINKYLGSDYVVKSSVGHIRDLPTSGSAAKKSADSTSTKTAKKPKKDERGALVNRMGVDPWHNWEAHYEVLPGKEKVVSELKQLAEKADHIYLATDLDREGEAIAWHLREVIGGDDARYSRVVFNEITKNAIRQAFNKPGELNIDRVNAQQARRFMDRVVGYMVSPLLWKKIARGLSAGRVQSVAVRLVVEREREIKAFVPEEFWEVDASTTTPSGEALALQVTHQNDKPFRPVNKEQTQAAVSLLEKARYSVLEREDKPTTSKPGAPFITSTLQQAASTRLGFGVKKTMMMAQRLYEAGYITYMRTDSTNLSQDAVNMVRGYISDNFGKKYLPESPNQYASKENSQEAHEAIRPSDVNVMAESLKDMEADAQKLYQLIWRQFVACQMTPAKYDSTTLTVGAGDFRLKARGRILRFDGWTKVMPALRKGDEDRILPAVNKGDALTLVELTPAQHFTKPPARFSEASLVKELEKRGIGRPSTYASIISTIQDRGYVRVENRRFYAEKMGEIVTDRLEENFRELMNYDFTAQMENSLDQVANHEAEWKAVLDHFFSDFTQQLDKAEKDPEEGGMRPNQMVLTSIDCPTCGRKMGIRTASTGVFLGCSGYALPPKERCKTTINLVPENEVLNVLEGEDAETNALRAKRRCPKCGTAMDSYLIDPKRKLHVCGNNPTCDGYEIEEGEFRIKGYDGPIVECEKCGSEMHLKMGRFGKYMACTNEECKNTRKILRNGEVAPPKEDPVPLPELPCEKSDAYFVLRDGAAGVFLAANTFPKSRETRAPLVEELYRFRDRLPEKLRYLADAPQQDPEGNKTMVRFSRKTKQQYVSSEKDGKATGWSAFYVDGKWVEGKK
M. tuberculosis topoisomerase I, sequence (P9WG49 whole entry): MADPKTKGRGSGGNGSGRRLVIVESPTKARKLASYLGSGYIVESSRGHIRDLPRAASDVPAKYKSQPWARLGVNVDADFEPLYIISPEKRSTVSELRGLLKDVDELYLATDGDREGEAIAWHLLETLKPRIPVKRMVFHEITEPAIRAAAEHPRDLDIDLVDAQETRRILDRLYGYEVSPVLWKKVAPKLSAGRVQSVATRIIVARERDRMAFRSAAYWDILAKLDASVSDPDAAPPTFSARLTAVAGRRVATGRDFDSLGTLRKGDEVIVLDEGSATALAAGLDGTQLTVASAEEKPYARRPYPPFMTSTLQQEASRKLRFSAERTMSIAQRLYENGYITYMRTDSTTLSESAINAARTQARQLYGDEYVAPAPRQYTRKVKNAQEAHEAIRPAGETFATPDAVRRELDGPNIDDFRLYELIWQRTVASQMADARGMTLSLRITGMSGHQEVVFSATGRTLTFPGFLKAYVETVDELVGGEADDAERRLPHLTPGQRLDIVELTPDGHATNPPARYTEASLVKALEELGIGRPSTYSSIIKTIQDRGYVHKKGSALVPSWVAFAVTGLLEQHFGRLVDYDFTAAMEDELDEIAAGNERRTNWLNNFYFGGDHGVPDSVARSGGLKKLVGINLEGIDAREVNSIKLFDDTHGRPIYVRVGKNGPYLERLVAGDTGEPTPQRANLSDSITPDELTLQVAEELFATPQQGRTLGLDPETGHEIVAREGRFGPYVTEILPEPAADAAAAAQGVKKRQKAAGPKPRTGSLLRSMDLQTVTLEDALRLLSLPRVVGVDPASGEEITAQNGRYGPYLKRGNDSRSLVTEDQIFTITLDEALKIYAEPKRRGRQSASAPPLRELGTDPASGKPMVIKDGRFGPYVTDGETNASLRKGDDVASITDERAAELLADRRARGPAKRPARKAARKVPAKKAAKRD
T1 sequence (P0AES4 whole entry, one chain of several): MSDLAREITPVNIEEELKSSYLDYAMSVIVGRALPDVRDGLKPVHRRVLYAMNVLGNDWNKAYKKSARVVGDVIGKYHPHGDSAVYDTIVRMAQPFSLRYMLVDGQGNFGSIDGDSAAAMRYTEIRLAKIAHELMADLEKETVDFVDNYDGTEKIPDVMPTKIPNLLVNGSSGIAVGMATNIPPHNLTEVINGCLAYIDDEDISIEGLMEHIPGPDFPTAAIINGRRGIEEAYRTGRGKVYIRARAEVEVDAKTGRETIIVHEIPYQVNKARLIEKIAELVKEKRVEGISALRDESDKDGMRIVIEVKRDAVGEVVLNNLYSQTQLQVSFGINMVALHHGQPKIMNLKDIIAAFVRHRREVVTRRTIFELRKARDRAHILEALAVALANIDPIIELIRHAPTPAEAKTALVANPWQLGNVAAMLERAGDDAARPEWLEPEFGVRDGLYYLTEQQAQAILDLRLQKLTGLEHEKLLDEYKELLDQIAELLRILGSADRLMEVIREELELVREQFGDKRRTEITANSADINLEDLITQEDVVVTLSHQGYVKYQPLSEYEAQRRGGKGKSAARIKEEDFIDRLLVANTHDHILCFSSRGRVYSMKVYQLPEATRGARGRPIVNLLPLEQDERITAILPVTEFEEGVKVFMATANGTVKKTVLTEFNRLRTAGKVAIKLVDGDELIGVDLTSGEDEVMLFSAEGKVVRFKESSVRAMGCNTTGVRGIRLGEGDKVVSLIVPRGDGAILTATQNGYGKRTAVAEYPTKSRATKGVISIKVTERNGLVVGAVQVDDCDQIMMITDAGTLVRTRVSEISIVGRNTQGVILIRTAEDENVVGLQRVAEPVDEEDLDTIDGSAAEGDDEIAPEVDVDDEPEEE
T3 sequence (P11388 whole entry): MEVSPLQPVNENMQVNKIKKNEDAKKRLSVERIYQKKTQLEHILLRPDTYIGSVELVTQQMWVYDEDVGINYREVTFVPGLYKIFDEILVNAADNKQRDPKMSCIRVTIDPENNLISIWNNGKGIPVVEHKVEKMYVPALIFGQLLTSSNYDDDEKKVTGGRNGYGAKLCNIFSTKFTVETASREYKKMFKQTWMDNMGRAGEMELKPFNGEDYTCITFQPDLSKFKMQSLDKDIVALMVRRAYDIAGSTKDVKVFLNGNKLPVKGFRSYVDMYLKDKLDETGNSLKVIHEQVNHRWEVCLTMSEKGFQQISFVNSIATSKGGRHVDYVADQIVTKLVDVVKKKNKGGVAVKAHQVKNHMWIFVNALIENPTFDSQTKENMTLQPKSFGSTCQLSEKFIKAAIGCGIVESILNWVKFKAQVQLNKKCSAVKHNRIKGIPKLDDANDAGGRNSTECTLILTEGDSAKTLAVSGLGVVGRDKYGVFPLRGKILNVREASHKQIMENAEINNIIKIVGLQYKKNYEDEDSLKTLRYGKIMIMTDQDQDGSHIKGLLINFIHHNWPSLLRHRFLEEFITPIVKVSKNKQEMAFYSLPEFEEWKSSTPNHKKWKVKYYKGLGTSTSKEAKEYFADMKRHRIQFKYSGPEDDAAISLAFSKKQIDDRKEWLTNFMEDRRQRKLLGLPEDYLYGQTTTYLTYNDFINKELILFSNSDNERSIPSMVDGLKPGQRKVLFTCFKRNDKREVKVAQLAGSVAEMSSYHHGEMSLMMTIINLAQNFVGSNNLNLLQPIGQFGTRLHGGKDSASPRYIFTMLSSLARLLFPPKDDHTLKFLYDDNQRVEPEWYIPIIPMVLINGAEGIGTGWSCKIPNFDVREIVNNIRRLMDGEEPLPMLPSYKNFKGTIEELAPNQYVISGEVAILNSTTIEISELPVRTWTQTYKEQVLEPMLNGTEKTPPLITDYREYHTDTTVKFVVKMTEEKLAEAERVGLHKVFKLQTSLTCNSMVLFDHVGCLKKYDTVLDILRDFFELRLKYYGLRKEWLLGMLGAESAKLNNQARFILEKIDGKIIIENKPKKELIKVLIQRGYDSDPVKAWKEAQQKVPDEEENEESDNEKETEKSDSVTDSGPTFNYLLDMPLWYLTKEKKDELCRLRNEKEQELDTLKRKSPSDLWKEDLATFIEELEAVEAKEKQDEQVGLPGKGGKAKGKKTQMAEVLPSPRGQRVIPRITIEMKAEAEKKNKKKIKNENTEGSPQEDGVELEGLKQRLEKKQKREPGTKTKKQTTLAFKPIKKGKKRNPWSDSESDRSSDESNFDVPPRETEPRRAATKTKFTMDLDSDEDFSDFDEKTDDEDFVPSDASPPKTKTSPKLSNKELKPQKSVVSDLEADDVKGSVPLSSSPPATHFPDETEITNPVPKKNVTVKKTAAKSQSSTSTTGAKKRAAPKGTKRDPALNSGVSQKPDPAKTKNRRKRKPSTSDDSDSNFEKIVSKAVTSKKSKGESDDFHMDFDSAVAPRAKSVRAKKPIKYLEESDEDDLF

Question: Which results are given for `CCCC[C@@H](CN[C@H](CN)CCCCNC)NCc1cccc2ccccc12` [Compound 2471-12, (S)—N6-methyl-N2-((S)-2-(naphthalen-1-ylmethylamino)hexyl)hexane-1,2,6-triamine]?
Answer: IC50 (E. coli topoisomerase I): 7.5 µM; IC50 [1]: 7.5 µM; MIC (M. smegmatis mc2 155): 25 µM (≈ 9.62 µg/mL); Percent Mtb-lux killing 5 μg/mL (Mtb-lux): 70.9%; MIC [2]: 12.5 µM (≈ 4.81 µg/mL); IC50 (Mtb CDC1551 Mtb::lux): 6.8 µM; CC50 at 24 h [3]: ~100 µM; CC50 (J774 macrophages): 104 µM; Effect on binding of MtbTopI to oligonucleotide substrate (MtbTopI): did not inhibit; Reduction of Mtb CFU (Mtb::lux): 1 log; Time course of loss of viable colony counts, control cloning vector (M. smegmatis): rapid killing; Percent HEK toxicity 6.25 μg/mL (HEK): 15.2%

Question: For `CCCC[C@@H](CN[C@H](CN)CCN)NCc1cccc2ccccc12` [Compound 2471-24, (S)—N2-((S)-2-(naphthalen-1-ylmethylamino)hexyl)butane-1,2,4-triamine], which IC50 (E. coli topoisomerase I) is on record?
Answer: Its IC50 is 10 µM.

Question: What about the IC50 [1] of the same molecule?
Answer: Its IC50 is 7.5 µM.

Question: And the MIC (M. smegmatis mc2 155)?
Answer: Its MIC is 50 µM (≈ 17.1 µg/mL).

Question: What about the “Percent Mtb-lux killing 5 μg/mL” value (Mtb-lux) of the same molecule?
Answer: The value was 64.3%.

Question: And the MIC [2]?
Answer: The MIC was 25 µM (≈ 8.56 µg/mL).

Question: What about the IC50 (Mtb CDC1551 Mtb::lux) of the same molecule?
Answer: Its IC50 is 8.4 µM.

Question: What about the CC50 at 24 h [3] of the same molecule?
Answer: Its CC50 at 24 h is ~100 µM.

Question: And the CC50 (J774 macrophages)?
Answer: The CC50 was 101 µM.

Question: What about the IC50 (E. coli DNA gyrase) of the same molecule?
Answer: Its IC50 is > 160 µM.

Question: What about the IC50 (Human topoisomerase I) of the same molecule?
Answer: The IC50 was > 160 µM.

Question: And the “Reduction of Mtb CFU” value (Mtb::lux)?
Answer: The value was 1 log.

Question: And the “Percent HEK toxicity 6.25 μg/mL” value (HEK)?
Answer: The value was 5.4%.

Question: Which results are given for `CCCC[C@@H](CN[C@@H](CN)CCCCNC)NCc1cccc2ccccc12` [Compound 2471-36]?
Answer: IC50 (E. coli topoisomerase I): 20 µM; IC50 [1]: 15 µM; MIC (M. smegmatis mc2 155): 25 µM (≈ 9.62 µg/mL); Percent Mtb-lux killing 5 μg/mL (Mtb-lux): 99.2%; IC50 (Mtb CDC1551 Mtb::lux): 3.3 µM; CC50 at 24 h [3]: ~40 µM; CC50 (J774 macrophages): 36.5 µM; IC50 (E. coli DNA gyrase): > 160 µM; IC50 (Human topoisomerase I): > 160 µM; IC50 (Human Topoisomerase IIα): > 160 µM; Percent HEK toxicity 6.25 μg/mL (HEK): 15.3%
